Measurements published in patent publication US6534542B2, “(2-hydroxy)ethyl-thioureas useful as modulators of α2B adrenergic receptors” (Allergen Sales, Inc., priority 2001, dated 2003).

Experiments:
alpha2B receptor = biological target: T1, alpha2B receptor (Homo sapiens, UniProt P18089); test: Receptor Selection and Amplification Technology (RSAT) assay, alpha2B; assay type: cell-based; details: NIH-3T3 cells; for EC50: NA = not active at concentrations less than 10 micromolar, read-out: RSAT EC50 (nM) Alpha 2B; for fraction of activity of the standard (brimonidine) attained, Alpha 2B (number in parenthesis): ratio of maximal effect to that of standard full agonist brimonidine
T1 construct: expressed in transfected cells; host or cells: NIH-3T3
T1 sequence (P18089 1-450): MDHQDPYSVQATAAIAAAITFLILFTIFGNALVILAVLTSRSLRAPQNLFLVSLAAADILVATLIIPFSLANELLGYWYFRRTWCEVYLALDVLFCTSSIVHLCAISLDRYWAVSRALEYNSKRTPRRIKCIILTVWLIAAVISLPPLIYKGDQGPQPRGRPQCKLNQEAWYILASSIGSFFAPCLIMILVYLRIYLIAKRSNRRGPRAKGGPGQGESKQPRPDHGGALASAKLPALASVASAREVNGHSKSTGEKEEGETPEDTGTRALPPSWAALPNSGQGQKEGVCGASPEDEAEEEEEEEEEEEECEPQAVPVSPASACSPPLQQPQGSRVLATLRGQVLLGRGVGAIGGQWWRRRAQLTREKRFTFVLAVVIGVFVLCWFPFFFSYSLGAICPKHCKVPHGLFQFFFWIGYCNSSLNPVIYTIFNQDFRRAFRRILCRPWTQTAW
From the text: (§1) The compounds of the invention are agonists of α2 adrenergic receptors, particularly they tend to be specific or selective agonists of α2B and/or to a lesser extent α2C adrenergic receptors, in preference over α2A adrenergic receptors. […] Al., 1995, Pharmacol. Toxicol. 76, pp. 308-311 (incorporated herein by reference) and is also described below. Another reference pertinent to this assay is Conklin et al. (1993) Nature 363:274-6, also incorporated herein by reference.
(§2) The RSAT assay measures a receptor-mediated loss of contact inhibition that results in selective proliferation of receptor-containing cells in a mixed population of confluent cells. The increase in cell number is assessed with an appropriate transfected marker gene such as β-galactosidase, the activity of which can be easily measured in a 96-well format. Receptors that activate the G protein, Gq, elicit this response. Alpha2 receptors, which normally couple to Gi, activate the RSAT response when coexpressed with a hybrid Gq protein that has a Gi receptor recognition domain, called Gq/i5^2.
(§3) NIH-3T3 cells are plated at a density of 2×10^6 cells in 15 cm dishes and maintained in Dulbecco's modified Eagle's medium supplemented with 10% calf serum. One day later, cells are cotransfected by calcium phosphate precipitation with mammalian expression plasmids encoding p-SV-β-galactosidase (5-10 μg), receptor (1-2 μg) and G protein (1-2 μg). 40 μg salmon sperm DNA may also be included in the transfection mixture. Fresh media is added on the following day and 1-2 days later, cells are harvested and frozen in 50 assay aliquots. Cells are thawed and 100 μl added to 100 μl aliquots of various concentrations of drugs in triplicate in 96-well dishes. Incubations continue 72-96 hr at 37°. After washing with phosphate-buffered saline, β-galactosidase enzyme activity is determined by adding 200 μl of the chromogenic substrate (consisting of 3.5 mM o-nitrophenyl-β-D-galactopyranoside and 0.5% nonidet P-40 in phosphate buffered saline), incubating overnight at 30 and measuring optical density at 420 nm. The absorbance is a measure of enzyme activity, which depends on cell number and reflects a receptor-mediated cell proliferation. The EC50 and maximal effect of each drug at each alpha2 receptor is determined. The efficacy or intrinsic activity is calculated as a ratio of the maximal effect of the drug to the maximal effect of a standard full agonist for each receptor subtype. Brimonidine, also called […], the chemical structure of which is shown below, is used as the standard agonist for the alpha2A, alpha2B and alpha2C receptors. [drawing 6]
(§4) The results of the RSAT assay with several exemplary compounds of the invention are disclosed in Table 3. […] NA stands for “not active” at concentrations less than 10 micromolar. As is known EC50 is the concentration at which half of a given compound's maximal activity is observed. It can be seen from the table that the compounds of the invention are specific or selective agonists of α2B and/or α2C adrenergic receptors, with no agonist like activity or only with insignificant agonist-like activity on α2A receptors.

alpha2C receptor = biological target: T2, alpha2C receptor (Homo sapiens, UniProt P18825); test: Receptor Selection and Amplification Technology (RSAT) assay, alpha2C; assay type: cell-based; details: NIH-3T3 cells; for EC50: NA = not active at concentrations less than 10 micromolar, read-out: RSAT EC50 (nM) Alpha 2C; for fraction of activity of the standard (brimonidine) attained, Alpha 2C (number in parenthesis): ratio of maximal effect to that of standard full agonist brimonidine
T2 construct: expressed in transfected cells; host or cells: NIH-3T3
T2 sequence (P18825 1-462): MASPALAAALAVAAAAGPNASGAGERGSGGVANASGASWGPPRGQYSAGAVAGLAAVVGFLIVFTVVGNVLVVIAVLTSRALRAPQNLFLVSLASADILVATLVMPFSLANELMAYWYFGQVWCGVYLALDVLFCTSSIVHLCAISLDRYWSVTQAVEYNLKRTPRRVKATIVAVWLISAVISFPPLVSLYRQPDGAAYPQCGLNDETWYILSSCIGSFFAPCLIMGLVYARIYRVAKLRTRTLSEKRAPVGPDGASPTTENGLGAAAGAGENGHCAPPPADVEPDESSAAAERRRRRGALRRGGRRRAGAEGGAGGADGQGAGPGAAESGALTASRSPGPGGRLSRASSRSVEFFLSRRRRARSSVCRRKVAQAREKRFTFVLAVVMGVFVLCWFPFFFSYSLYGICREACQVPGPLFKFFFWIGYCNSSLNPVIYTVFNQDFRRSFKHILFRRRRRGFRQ
From the text: as §1, §2, §3, §4

[1] = test system: rats with ligated L5 and L6 spinal nerves; test: Alleviation of chronic pain: tactile allodynia after L5/L6 spinal nerve ligation (von Frey hairs); assay type: in vivo, rat; details: 30 minutes after administration, ±SEM
From the text: A model for chronic pain (in particular peripheral neuropathy such as causalgia) involves the surgical ligation of the L5 (and optionally the L6) spinal nerves on one side in experimental animals. Rats recovering from the surgery gain weight and display a level of general activity similar to that of normal rats. However, these rats develop abnormalities of the foot, wherein the hindpaw is moderately everted and the toes are held together. More importantly, the hindpaw on the side affected by the surgery appears to become sensitive to pain from low-threshold mechanical stimuli, such as that producing a faint sensation of touch in a human, within about 1 week following surgery. This sensitivity to normally non-painful touch is called “tactile allodynia” and lasts for at least two months. The response includes lifting the affected hindpaw to escape from the stimulus, licking the paw and holding it in the air for many seconds. None of these responses is normally seen in the control group.
Rats are anesthetized before surgery. The surgical site is shaved and prepared either with betadine or Novacaine. Incision is made from the thoracic vertebra XIII down toward the sacrum. Muscle tissue is separated from the spinal vertebra (left side) at the L4-S2 levels. The L6 vertebra is located and the transyerse process is carefully removed with a small rongeur to expose the L4-L6 spinal nerves. The L5 and L6 spinal nerves are isolated and tightly ligated with 6-0 silk thread. The same procedure is done on the right side as a control, except no ligation of the spinal nerves is performed. A complete hemostasis is confirmed, then the wounds are sutured. A small amount of antibiotic ointment is applied to the incised area, and the rat is transferred to the recovery plastic cage under a regulated heat-temperature lamp. On the day of the experiment, at least seven days after the surgery, typically six rats per test group are administered the test drugs by intraperitoneal (i.p.) injection or oral gavage. For i.p. injection, the compounds are formulated in approximately 10 to 50% DMSO and given in a volume of 1 ml/kg body weight.
Tactile allodynia is measured prior to and 30 minutes after drug administration using von Frey hairs that are a series of fine hairs with incremental differences in stiffness. Rats are placed in a plastic cage with a wire mesh bottom and allowed to acclimate for approximately 30 minutes. The von Frey hairs are applied perpendicularly through the mesh to the mid-plantar region of the rats' hindpaw with sufficient force to cause slight buckling and held for 6-8 seconds. The applied force has been calculated to range from 0.41 to 15.1 grams. If the paw is sharply withdrawn, it is considered a positive response. A normal animal will not respond to stimuli in this range, but a surgically ligated paw will be withdrawn in response to a 1-2 gram hair. The 50% paw withdrawal threshold is determined using the method of Dixon, […]. The post-drug threshold is compared to the pre-drug threshold and the percent reversal of tactile sensitivity is calculated based on a normal threshold of 15.1 grams. The results are expressed in per cent (%) MPE, where the MPE value reflects the percentage reversal of pain threshold to that of a normal animal (100%). Table 4 below indicates results of this test with Compounds 8, 34 and 40 of the invention, administered i.p., in intrathecal and oral doses.

EC50 (alpha2B receptor) | fraction of activity of the standard (brimonidine) attained, Alpha 2B (number in parenthesis) (alpha2B receptor) | EC50 (alpha2C receptor) | fraction of activity of the standard (brimonidine) attained, Alpha 2C (number in parenthesis) (alpha2C receptor) | Compound | % MPE ([1]; IP dose 10 μg/kg) | % MPE ([1]; IP dose 30 μg/kg) | % MPE ([1]; IP dose 100 μg/kg) | % MPE ([1]; IP dose 300 μg/kg) | % MPE ([1]; IP dose 1000 μg/kg) | % MPE ([1]; Intrathecal dose 30 μg) | % MPE ([1]; Intrathecal dose 100 μg) | % MPE ([1]; Intrathecal dose 300 μg)
6 nM | (0.8) | 253 nM | (0.37) | CC1=C(C)C(NC(=S)NCCO)CCC1 (stereo not drawn) [Compound 31, 1-(2,3-Dimethyl-cyclohex-2-enyl)-3-(2-hydroxy-ethyl)-thiourea] | – | – | – | – | – | – | – | –
12 nM | (0.71) | 251 nM | (0.98) | CC1=CCCCC1NC(=S)NCCO (stereo not drawn) [Compound 33, 1-(2-Hydroxy-ethyl)-3-(2-methyl-cyclohex-2-enyl)-thiourea] | – | – | – | – | – | – | – | –
11 nM | (0.88) | 59 nM | (0.62) | CCC1=CCCCC1NC(=S)NCCO (stereo not drawn) [Compound 34, 1-(2-Hydroxy-ethyl)-3-(2-ethyl-cyclohex-2-enyl)-thiourea] | 0.4 ± 1.0 % MPE | 48 ± 6.1 % MPE | 66 ± 11 % MPE | 96 ± 3.7 % MPE | – | – | – | –
73 nM | (0.58) | 630 nM | (0.4) | OCCNC(=S)NC1C=CCCC1 (stereo not drawn) [Compound 35, 1-(Cyclohex-2-enyl)-3-(2-hydroxy-ethyl)-thiourea] | – | – | – | – | – | – | – | –

More lines, now with the values behind:

Compound | EC50 (alpha2B receptor) | fraction of activity of the standard (brimonidine) attained, Alpha 2B (number in parenthesis) (alpha2B receptor) | EC50 (alpha2C receptor) | fraction of activity of the standard (brimonidine) attained, Alpha 2C (number in parenthesis) (alpha2C receptor) | % MPE ([1]; IP dose 10 μg/kg) | % MPE ([1]; IP dose 30 μg/kg) | % MPE ([1]; IP dose 100 μg/kg) | % MPE ([1]; IP dose 300 μg/kg) | % MPE ([1]; IP dose 1000 μg/kg) | % MPE ([1]; Intrathecal dose 30 μg) | % MPE ([1]; Intrathecal dose 100 μg) | % MPE ([1]; Intrathecal dose 300 μg)
CC1=CCCC1NC(=S)NCCO (stereo not drawn) [Compound 14, 1-(2-Hydroxy-ethyl)-3-(2-methyl-cyclopent-2-enyl)-thiourea] | 97 nM | (0.95) | 3000 nM | (0.3) | – | – | – | – | – | – | – | –
OCCNC(=S)NCC1CC=CCC1 (stereo not drawn) [Compound 8, 1-Cyclohex-3-enylmethyl-3-(2-hydroxy-ethyl)-thiourea] | 17 nM | (0.79) | – | – | 1.5 ± 0.9 % MPE | 47 ± 8.6 % MPE | 63 ± 9.1 % MPE | 56 ± 6.5 % MPE | 52 ± 8.4 % MPE | 0.02 ± 0.6 % MPE | 1.3 ± 0.6 % MPE | 20 ± 5.1 % MPE
CCCCC1=C(CNC(=S)NCCO)CCC1 [Compound 25, 1-(2-Butyl-cyclopent-1-enylmethyl)-3-(2-hydroxy-ethyl)-thiourea] | > 2000 nM | (0.51) | 738 nM | (0.69) | – | – | – | – | – | – | – | –
CC1=C(CNC(=S)NCCO)CCC1 [Compound 27, 1-(2-Methyl-cyclopent-1-enylmethyl)-3-(2-hydroxy-ethyl)-thiourea] | 135 nM | (0.75) | 1730 nM | (0.3) | – | – | – | – | – | – | – | –
